Assay results: ChEMBL document CHEMBL1201862, “PubChem BioAssay data set” (2004)
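48-hour exposure; five concentrations; linearly interpolated endpoints. GI50 marks 50% less growth.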 Active and inactive are the calls of the source. Rule as the data show it: active = GI50 up to about 1.1 µM and inactive = higher.

Tests used:
Assay in all cases: NCI tumour cell line growth inhibition, 48 h
HOP-92 = test system: HOP-92
NCI-H23 = test system: NCI-H23
CAKI-1 = test system: CAKI-1
SW-620 = test system: SW-620
LOX IMVI = test system: LOX IMVI
COLO 205 = test system: COLO 205
M14 = test system: M14
OVCAR-4 = test system: OVCAR-4
HOP-62 = test system: HOP-62
HT-29 = test system: HT-29
OVCAR-5 = test system: OVCAR-5
SN12C = test system: SN12C
RPMI-8226 = test system: RPMI-8226
SK-MEL-5 = test system: SK-MEL-5
IGROV-1 = test system: IGROV-1
HCC 2998 = test system: HCC 2998
MOLT-4 = test system: MOLT-4
SR = test system: SR

Measured: GI50

CC1=NN(C(=O)c2ccc(Cl)cc2)C(=O)/C1=C/c1cccc([N+](=O)[O-])c1
inactive: HOP-92 > 100 µM | NCI-H23 > 100 µM | CAKI-1 > 100 µM | SW-620 > 100 µM | LOX IMVI > 100 µM | COLO 205 > 100 µM | M14 > 100 µM | OVCAR-4 > 100 µM | HOP-62 > 100 µM | HT-29 > 100 µM | OVCAR-5 > 100 µM | SN12C > 100 µM | RPMI-8226 > 100 µM | SK-MEL-5 > 100 µM | IGROV-1 > 100 µM | HCC 2998 > 100 µM

CN1C(=N\S(=O)(=O)c2ccc(Cl)cc2)/C(=N/N=P(c2ccccc2)(c2ccccc2)c2ccccc2)c2ccccc21
inactive: NCI-H23 > 100 µM | CAKI-1 > 100 µM | SW-620 > 100 µM | COLO 205 > 100 µM | M14 > 100 µM | OVCAR-4 > 100 µM | HT-29 > 100 µM | OVCAR-5 > 100 µM | MOLT-4 > 100 µM | SR > 100 µM | SN12C > 100 µM | SK-MEL-5 > 100 µM | IGROV-1 > 100 µM | HCC 2998 > 100 µM

O=C(NN1C(=O)CSC1c1ccc(Cl)c(Cl)c1)c1ccncc1 (stereo not given)
inactive: NCI-H23 84.7 µM | CAKI-1 > 100 µM | SW-620 > 100 µM | LOX IMVI 66.4 µM | COLO 205 > 100 µM | M14 44.5 µM | OVCAR-4 54.1 µM | HT-29 60.1 µM | OVCAR-5 > 100 µM | MOLT-4 67.8 µM | SN12C 75.9 µM | RPMI-8226 42.9 µM | SK-MEL-5 46.9 µM | IGROV-1 34.4 µM | HCC 2998 46.2 µM

Cc1ccc2c(c1)C1C(CO2)C(c2ccccc2)=NN1c1ccccc1 (stereo not given)
inactive: HOP-92 80.5 µM | NCI-H23 > 100 µM | SW-620 > 100 µM | LOX IMVI > 100 µM | COLO 205 > 100 µM | HOP-62 > 100 µM | HT-29 69.5 µM | OVCAR-5 > 100 µM | MOLT-4 96.2 µM | RPMI-8226 45.7 µM | IGROV-1 > 100 µM | HCC 2998 95.5 µM

O=P(c1ccccc1)(c1ccccc1)C1CC=C(c2ccccc2)C2(CCCC2)C1 (stereo not given)
inactive: HOP-92 12.5 µM | NCI-H23 9.44 µM | CAKI-1 40.6 µM | SW-620 81.3 µM | LOX IMVI 31.3 µM | COLO 205 22.8 µM | M14 43.3 µM | OVCAR-4 29.6 µM | HT-29 59.2 µM | OVCAR-5 29.7 µM | MOLT-4 21.4 µM | SN12C 59.7 µM | RPMI-8226 20.5 µM | SK-MEL-5 71.8 µM | IGROV-1 42.7 µM

COC1(OC)CCC2(C)OC(c3ccccc3)C1O2 (stereo not given)
inactive: NCI-H23 > 100 µM | CAKI-1 > 100 µM | SW-620 > 100 µM | LOX IMVI > 100 µM | COLO 205 > 100 µM | M14 > 100 µM | OVCAR-4 > 100 µM | HOP-62 > 100 µM | HT-29 > 100 µM | OVCAR-5 > 100 µM | MOLT-4 > 100 µM | SR > 100 µM | SN12C > 100 µM | RPMI-8226 > 100 µM | IGROV-1 > 100 µM | HCC 2998 > 100 µM

Cc1ccc(/C=C/C(=O)c2ccc([N+](=O)[O-])cc2)cc1
inactive: NCI-H23 30.9 µM | CAKI-1 > 100 µM | SW-620 > 100 µM | LOX IMVI > 100 µM | COLO 205 > 100 µM | M14 > 100 µM | OVCAR-4 > 100 µM | HOP-62 > 100 µM | HT-29 > 100 µM | OVCAR-5 > 100 µM | MOLT-4 > 100 µM | SR 79.1 µM | SN12C > 100 µM | SK-MEL-5 > 100 µM | IGROV-1 > 100 µM | HCC 2998 > 100 µM

Cc1ccc(NC(=O)/C(CC(=O)c2c[n+]([O-])c3ccccc3[n+]2[O-])=N\NC(=O)C[n+]2ccccc2)cc1
inactive: CAKI-1 > 100 µM | SW-620 > 100 µM | LOX IMVI > 100 µM | COLO 205 > 100 µM | M14 > 100 µM | OVCAR-4 64.1 µM | HOP-62 > 100 µM | HT-29 > 100 µM | OVCAR-5 > 100 µM | MOLT-4 > 100 µM | SR > 100 µM | SN12C > 100 µM | RPMI-8226 > 100 µM | SK-MEL-5 > 100 µM | IGROV-1 > 100 µM | HCC 2998 > 100 µM

COC(=O)Cc1cc(=O)n2c([nH]c3ccccc32)c1C#N
inactive: NCI-H23 > 100 µM | CAKI-1 > 100 µM | SW-620 > 100 µM | LOX IMVI > 100 µM | COLO 205 > 100 µM | M14 > 100 µM | OVCAR-4 > 100 µM | HOP-62 > 100 µM | HT-29 > 100 µM | OVCAR-5 > 100 µM | MOLT-4 > 100 µM | SR > 100 µM | SN12C 82.6 µM | RPMI-8226 56.4 µM | SK-MEL-5 34.8 µM | IGROV-1 > 100 µM | HCC 2998 > 100 µM

Cc1cc(Cl)ccc1NC(=O)CCCC(=O)C(C(=O)c1ccccc1)c1ccccc1 (stereo not given)
inactive: HOP-92 > 100 µM | NCI-H23 > 100 µM | CAKI-1 > 100 µM | LOX IMVI > 100 µM | COLO 205 > 100 µM | M14 > 100 µM | OVCAR-4 > 100 µM | HOP-62 93.5 µM | HT-29 > 100 µM | OVCAR-5 > 100 µM | MOLT-4 > 100 µM | SN12C > 100 µM | RPMI-8226 > 100 µM | IGROV-1 > 100 µM | HCC 2998 > 100 µM

COc1ccc(CCNCc2cccc(OC)c2OC)cc1OC
inactive: HOP-92 38.1 µM | NCI-H23 > 100 µM | CAKI-1 > 100 µM | SW-620 > 100 µM | LOX IMVI > 100 µM | COLO 205 > 100 µM | M14 > 100 µM | OVCAR-4 > 100 µM | HOP-62 > 100 µM | HT-29 88.7 µM | OVCAR-5 > 100 µM | MOLT-4 > 100 µM | SN12C > 100 µM | RPMI-8226 > 100 µM | SK-MEL-5 > 100 µM | IGROV-1 > 100 µM | HCC 2998 > 100 µM

COc1ccc(NC(=O)CSc2nnc(Cc3ccccc3)o2)cc1
inactive: NCI-H23 61.5 µM | CAKI-1 > 100 µM | SW-620 > 100 µM | LOX IMVI 53.5 µM | COLO 205 94.8 µM | M14 > 100 µM | OVCAR-4 > 100 µM | HOP-62 > 100 µM | HT-29 74.1 µM | OVCAR-5 > 100 µM | MOLT-4 > 100 µM | SN12C > 100 µM | RPMI-8226 41.4 µM | SK-MEL-5 85.1 µM | IGROV-1 > 100 µM | HCC 2998 > 100 µM

Cc1nc(-n2nc(-c3ccccc3)cc2-c2ccccc2)sc1C(=O)/C=C/c1ccc(Cl)c(Cl)c1
inactive: NCI-H23 49.2 µM | CAKI-1 24.8 µM | SW-620 21.5 µM | LOX IMVI 13.1 µM | COLO 205 28.7 µM | M14 17.6 µM | OVCAR-4 21.1 µM | HOP-62 21.9 µM | HT-29 > 10 µM | OVCAR-5 18.8 µM | MOLT-4 11.8 µM | SR 17.2 µM | SN12C 15.7 µM | IGROV-1 12.1 µM | HCC 2998 24.7 µM
